# Test results taken from patent US20250082598A1, “Melafenoxate, 2-(1-adamantylamino)ethyl 2-(4-chlorophenoxy)acetate and derivatives thereof for treating circadian rhythm sleep disorders with neurodegenerative diseases such as Alzheimer's disease” (NLS Pharmaceutics AG, priority 2021, published 2025).
# What was measured:
# [1] = target: T1, NK2 (h) (Homo sapiens, UniProt P21452); assay: Radioligand binding, NK2 (h); settings: 10^−5 M; agonist radioligand
# T1 construct: CEREP (Eurofins, France)
# T1 sequence (P21452 1-398): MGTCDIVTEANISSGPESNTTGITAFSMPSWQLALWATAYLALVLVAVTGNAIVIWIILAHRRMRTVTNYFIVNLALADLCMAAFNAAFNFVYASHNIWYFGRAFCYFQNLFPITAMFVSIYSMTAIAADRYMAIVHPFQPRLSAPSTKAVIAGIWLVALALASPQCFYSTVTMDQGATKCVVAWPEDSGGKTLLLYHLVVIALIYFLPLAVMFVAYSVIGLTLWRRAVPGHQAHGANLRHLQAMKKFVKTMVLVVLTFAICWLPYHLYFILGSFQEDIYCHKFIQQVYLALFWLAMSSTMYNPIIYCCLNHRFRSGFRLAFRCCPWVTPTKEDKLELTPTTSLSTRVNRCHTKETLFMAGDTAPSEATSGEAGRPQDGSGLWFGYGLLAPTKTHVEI
# Method: (§1) Melafenoxate was tested at 10^−5 M, calculated as a % inhibition of control specific binding of a radioactively labeled ligand specific for each target.
# (§2) This binding profile panel was broadly defined with roughly an equal number of selective, central and peripheral therapeutically relevant targets, including native animal tissues, radioligands and specific enzymes involved in cell cycle regulation in accordance with Eurofins Standard Operating Procedure.
# (§3) For radioligand binding experiments, the half maximal inhibitory concentration (IC50) and the half maximal effective concentration (EC50) values were determined (via computer software) by nonlinear regression analysis of the competition curves using Hill equation curve fitting. The inhibition constants (Ki) were calculated using the Cheng-Prusoff equation (Ki=IC50/(1+(L/KD)), where L is the concentration of radioligand in the assay, and KD is the affinity of the radioligand for the receptor.^49
# (§4) The results are expressed as a % control specific binding ([measured specific binding/control specific binding]×100) and as a % inhibition of control specific binding (100−[(measured specific binding/control specific binding)×100]) obtained in the presence of the test compounds. […]
# [2] = target: T2, 5-HT1A (h) (Homo sapiens, UniProt P08908); assay: Radioligand binding, 5-HT1A (h); settings: 10^−5 M; agonist radioligand
# T2 construct: CEREP (Eurofins, France)
# T2 sequence (P08908 1-422): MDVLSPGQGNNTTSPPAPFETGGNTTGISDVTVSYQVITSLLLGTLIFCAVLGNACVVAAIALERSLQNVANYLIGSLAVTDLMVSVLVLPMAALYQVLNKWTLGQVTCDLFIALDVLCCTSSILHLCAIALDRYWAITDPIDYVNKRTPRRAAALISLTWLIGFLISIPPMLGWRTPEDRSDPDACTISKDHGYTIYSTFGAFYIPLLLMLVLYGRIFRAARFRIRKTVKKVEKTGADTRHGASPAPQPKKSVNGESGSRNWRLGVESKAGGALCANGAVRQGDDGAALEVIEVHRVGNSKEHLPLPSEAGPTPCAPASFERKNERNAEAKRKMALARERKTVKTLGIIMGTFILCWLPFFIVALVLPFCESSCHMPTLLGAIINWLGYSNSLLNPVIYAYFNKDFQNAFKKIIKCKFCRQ
# Method: as §1, §2, §3, §4
smiles,measurement,setting,value
"O=C(COc1ccc(Cl)cc1)OCCNC12CC3CC(CC(C3)C1)C2 [Melafenoxate, 2-(1-adamantylamino)ethyl 2-(4-chlorophenoxy)acetate]",inhibition at 10 µM,[1],33.5%
same,inhibition at 10 µM,[2],10.4%
